Reference: ChEMBL document CHEMBL1201862, “PubChem BioAssay data set” (2004)
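Dose response: 5 concentrations. Exposure: 48 h. Format: 96-well plates. Endpoint: linear interpolation; highest concentration if not reached. GI50 = concentration required for 50% inhibition of growth.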 Active and inactive are the calls of the source. No stated cut-off is given here; in the data, active = GI50 up to about 1.1 µM and inactive = higher.

Experiments:
Test in all cases: inhibition of tumour cell growth, NCI panel, 48 h
A549 = system: A549
ACHN = system: ACHN
BT-549 = system: BT-549
CCRF-CEM = system: CCRF-CEM
EKVX = system: EKVX
HCT-15 = system: HCT-15
HOP-62 = system: HOP-62
MCF7 = system: MCF7
MDA-MB-231 = system: MDA-MB-231
Malme-3M = system: Malme-3M
OVCAR-3 = system: OVCAR-3
OVCAR-4 = system: OVCAR-4
RPMI-8226 = system: RPMI-8226
SK-MEL-28 = system: SK-MEL-28
SK-MEL-2 = system: SK-MEL-2
SK-OV-3 = system: SK-OV-3
SNB-75 = system: SNB-75
UACC-257 = system: UACC-257
UACC-62 = system: UACC-62
CAKI-1 = system: CAKI-1

Compound	GI50 (A549)	GI50 (ACHN)	GI50 (BT-549)	GI50 (CCRF-CEM)	GI50 (EKVX)	GI50 (HCT-15) [µM]	GI50 (HOP-62)	GI50 (MCF7)	GI50 (MDA-MB-231)	GI50 (Malme-3M)	GI50 (OVCAR-3)	GI50 (OVCAR-4)	GI50 (RPMI-8226)	GI50 (SK-MEL-28)	GI50 (SK-MEL-2)	GI50 (SK-OV-3)	GI50 (SNB-75)	GI50 (UACC-257)	GI50 (UACC-62)	GI50 (CAKI-1)
CCOC(=O)CSc1nnc(CSc2nc(-c3ccccc3)c(-c3ccccc3)[nH]2)n1-c1ccccc1	> 100 µM (inactive)	18.3 µM (inactive)	> 100 µM (inactive)	> 54 µM (inactive)	> 100 µM (inactive)	> 100	> 100 µM (inactive)	66.4 µM (inactive)	34.5 µM (inactive)	> 69.2 µM (inactive)	> 100 µM (inactive)	22.1 µM (inactive)	> 80.4 µM (inactive)	> 58.7 µM (inactive)	> 31.6 µM (inactive)	23.4 µM (inactive)	> 100 µM (inactive)	29.3 µM (inactive)	27.2 µM (inactive)	–
CCC(C)(C)c1ccc(Oc2cccc(C(=O)O)c2)cc1	38.2 µM (inactive)	58.9 µM (inactive)	66.7 µM (inactive)	28.9 µM (inactive)	40.4 µM (inactive)	39.5	64.7 µM (inactive)	36.8 µM (inactive)	> 100 µM (inactive)	44.6 µM (inactive)	26.7 µM (inactive)	44.3 µM (inactive)	28.8 µM (inactive)	81.8 µM (inactive)	45.2 µM (inactive)	72.1 µM (inactive)	37.9 µM (inactive)	> 100 µM (inactive)	34.6 µM (inactive)	65.6 µM (inactive)
CN(/N=C/c1ccccn1)C1=NCCCCN1	> 100 µM (inactive)	> 100 µM (inactive)	> 100 µM (inactive)	> 100 µM (inactive)	> 100 µM (inactive)	> 100	> 100 µM (inactive)	> 100 µM (inactive)	> 100 µM (inactive)	> 100 µM (inactive)	> 100 µM (inactive)	> 100 µM (inactive)	> 100 µM (inactive)	> 100 µM (inactive)	> 100 µM (inactive)	> 100 µM (inactive)	> 100 µM (inactive)	> 100 µM (inactive)	> 100 µM (inactive)	> 100 µM (inactive)
CC(C)=CCNc1ncnc2[nH]cnc12	> 100 µM (inactive)	> 100 µM (inactive)	> 100 µM (inactive)	> 100 µM (inactive)	> 100 µM (inactive)	> 100	> 100 µM (inactive)	> 100 µM (inactive)	> 100 µM (inactive)	> 100 µM (inactive)	> 100 µM (inactive)	> 100 µM (inactive)	> 100 µM (inactive)	> 100 µM (inactive)	> 100 µM (inactive)	> 100 µM (inactive)	> 100 µM (inactive)	37.1 µM (inactive)	88.5 µM (inactive)	> 100 µM (inactive)
N=c1oc2ccc(Cl)cc2cc1C(=O)Nc1ccccc1	> 100 µM (inactive)	45.8 µM (inactive)	> 54 µM (inactive)	> 100 µM (inactive)	> 59 µM (inactive)	> 100	21.6 µM (inactive)	19.6 µM (inactive)	53.8 µM (inactive)	6.5 µM (inactive)	> 100 µM (inactive)	> 100 µM (inactive)	> 100 µM (inactive)	> 100 µM (inactive)	> 100 µM (inactive)	23.3 µM (inactive)	23.6 µM (inactive)	> 54.6 µM (inactive)	> 100 µM (inactive)	11.1 µM (inactive)
COc1ccc(P2(=S)Oc3ccc(C(c4ccccc4)(c4ccccc4)c4ccccc4)cc3O2)cc1 (stereo not drawn)	16.6 µM (inactive)	16.7 µM (inactive)	24.9 µM (inactive)	24.9 µM (inactive)	20.2 µM (inactive)	19.3	24.6 µM (inactive)	16.8 µM (inactive)	21.2 µM (inactive)	20 µM (inactive)	16.9 µM (inactive)	13.2 µM (inactive)	23 µM (inactive)	19.7 µM (inactive)	20.5 µM (inactive)	23 µM (inactive)	13.7 µM (inactive)	19.2 µM (inactive)	13.4 µM (inactive)	19.1 µM (inactive)
CC(=O)Oc1ccc2c(C)cc(=O)oc2c1	> 100 µM (inactive)	> 100 µM (inactive)	> 100 µM (inactive)	> 100 µM (inactive)	> 100 µM (inactive)	> 100	> 100 µM (inactive)	> 100 µM (inactive)	> 100 µM (inactive)	> 100 µM (inactive)	> 100 µM (inactive)	> 100 µM (inactive)	> 100 µM (inactive)	> 100 µM (inactive)	> 100 µM (inactive)	> 100 µM (inactive)	> 100 µM (inactive)	> 100 µM (inactive)	> 100 µM (inactive)	> 100 µM (inactive)
Cn1c(=O)c2nc(CCCc3ccc([N+](=O)[O-])cc3)[nH]c2n(C)c1=O	> 100 µM (inactive)	> 100 µM (inactive)	> 100 µM (inactive)	–	> 100 µM (inactive)	> 100	> 100 µM (inactive)	> 100 µM (inactive)	> 100 µM (inactive)	> 100 µM (inactive)	> 100 µM (inactive)	> 100 µM (inactive)	> 100 µM (inactive)	> 100 µM (inactive)	> 100 µM (inactive)	> 100 µM (inactive)	> 100 µM (inactive)	> 100 µM (inactive)	> 100 µM (inactive)	> 100 µM (inactive)
O=[N+]([O-])c1cc2ccc1OCc1cccc(n1)COc1ccc(cc1[N+](=O)[O-])/C=N\CCCCCCCC/N=C\2	> 100 µM (inactive)	> 100 µM (inactive)	> 100 µM (inactive)	> 100 µM (inactive)	> 100 µM (inactive)	> 100	> 100 µM (inactive)	> 100 µM (inactive)	> 100 µM (inactive)	> 100 µM (inactive)	> 100 µM (inactive)	> 100 µM (inactive)	> 100 µM (inactive)	> 100 µM (inactive)	> 100 µM (inactive)	–	> 100 µM (inactive)	> 100 µM (inactive)	> 100 µM (inactive)	> 100 µM (inactive)
CCN(CCO)CC1CCCC2CCCCC21 (stereo not drawn)	> 100 µM (inactive)	> 100 µM (inactive)	> 100 µM (inactive)	–	> 100 µM (inactive)	> 100	> 100 µM (inactive)	> 100 µM (inactive)	> 100 µM (inactive)	> 100 µM (inactive)	> 100 µM (inactive)	> 100 µM (inactive)	> 100 µM (inactive)	> 100 µM (inactive)	> 100 µM (inactive)	> 100 µM (inactive)	> 100 µM (inactive)	> 100 µM (inactive)	> 100 µM (inactive)	> 100 µM (inactive)
CC1CCc2sc3nc4n(c(=O)c3c2C1)CC(C)S4 (stereo not drawn)	21 µM (inactive)	24.9 µM (inactive)	27.5 µM (inactive)	–	15.1 µM (inactive)	25.6	32.7 µM (inactive)	24 µM (inactive)	20.4 µM (inactive)	25.7 µM (inactive)	7.6 µM (inactive)	25.5 µM (inactive)	30.8 µM (inactive)	25.9 µM (inactive)	19.5 µM (inactive)	29.7 µM (inactive)	21.5 µM (inactive)	20.2 µM (inactive)	16.2 µM (inactive)	36.9 µM (inactive)
CC1=CCC([C@@](C)(O)CCCC(C)(C)N=C=S)CC1 (stereo partly drawn)	17.6 µM (inactive)	16.8 µM (inactive)	17.8 µM (inactive)	22.2 µM (inactive)	17 µM (inactive)	18.5	22.6 µM (inactive)	18.7 µM (inactive)	19.1 µM (inactive)	14.8 µM (inactive)	18.4 µM (inactive)	16.5 µM (inactive)	25.7 µM (inactive)	16.6 µM (inactive)	17.7 µM (inactive)	17.9 µM (inactive)	17.8 µM (inactive)	19.4 µM (inactive)	16.9 µM (inactive)	–
COc1cccc(/N=N/C(=N/NC(=O)c2cc(Cl)ccc2O)c2ccc(N(CCC#N)CCC#N)cc2C)c1	62.1 µM (inactive)	46.3 µM (inactive)	34.3 µM (inactive)	15.3 µM (inactive)	20.3 µM (inactive)	33.3	66.5 µM (inactive)	7.8 µM (inactive)	35.1 µM (inactive)	17.5 µM (inactive)	2.06 µM (inactive)	19.8 µM (inactive)	61.2 µM (inactive)	–	57 µM (inactive)	52 µM (inactive)	21.4 µM (inactive)	10.1 µM (inactive)	44.6 µM (inactive)	48.3 µM (inactive)
CCOC(=O)c1c(N)n(-c2ccccc2)c(=O)n(-c2ccccc2)c1=O	> 100 µM (inactive)	> 100 µM (inactive)	> 100 µM (inactive)	> 10 µM (inactive)	–	> 100	–	> 100 µM (inactive)	> 100 µM (inactive)	> 100 µM (inactive)	> 100 µM (inactive)	> 100 µM (inactive)	> 100 µM (inactive)	> 100 µM (inactive)	> 100 µM (inactive)	–	> 100 µM (inactive)	> 100 µM (inactive)	> 100 µM (inactive)	–
CCOc1ccc(/N=N/C2C(=O)N(C(=O)CC(=O)Nc3ccccc3OC)N=C2C)cc1 (stereo not drawn)	> 43.3 µM (inactive)	> 100 µM (inactive)	13.2 µM (inactive)	> 100 µM (inactive)	–	14.5	> 33.4 µM (inactive)	6.61 µM (inactive)	> 36.5 µM (inactive)	21.1 µM (inactive)	8.83 µM (inactive)	> 19.7 µM (inactive)	45 µM (inactive)	> 100 µM (inactive)	> 38.2 µM (inactive)	> 37.2 µM (inactive)	0.916 µM (active)	> 74.3 µM (inactive)	> 44.3 µM (inactive)	> 36.7 µM (inactive)
